Assay: xn = mol fraction of the nth substance listed
Details: 100 kPa, Liquid; for mass density: Vibrating tube method; for viscosity: Concentric cylinders viscometry

CCCCn1cc[n+](C)c1.O=[N+]([O-])[O-] [1-butyl-3-methylimidazolium nitrate] + CC(C)O
Details | mass density, 308.15 K [kg/m3] | mass density, 313.15 K [kg/m3] | mass density, 318.15 K [kg/m3] | mass density, 323.15 K [kg/m3] | viscosity, 313.15 K [mPa·s] | viscosity, 318.15 K [mPa·s] | viscosity, 323.15 K [mPa·s]
x1 = 0.0815 | 841.9 | 837.9 | 833.7 | 829.5 | 2.53 | 2.25 | 2
x1 = 0.1596 | 894.8 | 891.1 | 887.1 | 883.3 | 3.95 | 3.53 | 3.09
x1 = 0.2405 | 940.1 | 936.5 | 932.8 | 929.2 | 5.7 | 5.15 | 4.61
x1 = 0.3495 | 989.6 | 986.4 | 982.9 | 979.5 | 8.96 | 7.91 | 7.17
x1 = 0.4405 | 1023.7 | 1020.6 | 1017.3 | 1014.1 | 12.29 | 10.89 | 9.8
x1 = 0.5607 | 1060.8 | 1057.8 | 1054.7 | 1051.7 | 17.93 | 15.75 | 14.17
x1 = 0.6506 | 1084.2 | 1081.3 | 1078.3 | 1075.4 | 23.42 | 20.46 | 18.14
x1 = 0.7413 | 1104.7 | 1101.7 | 1098.9 | 1096.1 | 30.6 | 26.05 | 23.09
x1 = 0.8515 | 1126 | 1123.2 | 1120.5 | 1117.8 | 42.3 | 35.1 | 30.31
x1 = 0.9396 | 1140.6 | 1137.8 | 1135 | 1132.5 | 58.7 | 45.9 | 37.81
x1 = 1 | 1149.3 | 1146.5 | 1143.8 | 1141.2 | 75.12 | 56.28 | 45.17

Source: the NIST ThermoML archive (doi:10.1016/j.jct.2019.04.010)
